The term melting point denotes the temperature of the solid-liquid transition.

In the case of `Cc1ccc(C)c(OCc2ccccc2C(=O)O)c1`, the melting point fell in the range of 162 to 163 °C.

In turn, `CSCC(=O)Nc1ccccc1` yielded a melting point of 100 °C.

Regarding `CC(C)Oc1nccc2c1C(c1ccccc1C(F)(F)F)c1c(cc[nH]c1=O)N2` (configuration not stated), the melting point turned out to be 315 °C.

On to `COc1cccc(-c2nc(NC(=O)Nc3ccccn3)cs2)c1`, for which the melting point lay in the range of 201 to 203 °C.

`CC(C)(C)C(=O)N[Si](C)(C)C` came in with a melting point of 101 to 106 °C.

As to `COC(=O)c1ccc([C@H]2CCN(Cc3ccccc3)C[C@@H]2O)cc1` (racemic), the melting point was in the range of 103 to 104 °C.

In turn, `CC(C)C1=CC(=O)C2=C(CCC3C(C)(C(=O)O)CCCC23C)C1=O` (configuration not stated) came in with a melting point of 207 to 209 °C.

The compound `CC1Cc2cc(Cl)ccc2C(c2ccc([N+](=O)[O-])cc2)=NN1` (configuration not stated) gave a melting point of 152 to 154 °C.

As to `Cc1c(CNCC2CCOCC2)n(C)c2c(F)c(NC(=O)c3ccc(OC[C@@H]4CCCO4)cc3)ccc12`, the melting point lay within 132 to 134 °C.

On to `CCOC(CN1CCOCC1)CN1C(=O)c2ccccc2CS1(=O)=O` (configuration not stated), for which the melting point lay within 128 to 129 °C.

Compound `COc1cc(F)ccc1OCCN1C(=O)c2ccccc2C1=O` displayed a melting point of 102 to 104 °C.

On to `Cc1nnnn1-c1ncccc1C(=O)O`, for which the melting point fell in the range of 178 to 180 °C.

`COCCNc1cncc(C(N)=O)c1`: the melting point lay in the range of 79 to 80 °C.

As for `CC(C)(C)CC(=O)Nc1ccc2oc3c(c2c1)CCCC3`, the melting point is 164 to 165 °C.

In turn, `Cc1cc(C2(C(F)(F)F)ON=C(c3ccc(F)cc3)O2)ccc1N` (configuration not stated) had a melting point of 78 to 83 °C.

The compound `CCCN(c1cc(Cl)ncn1)n1cccc1` had a melting point of 52 to 54 °C.

Compound `Clc1ccc2c(c1)CCc1cccnc1C2N1CCNCC1` (single isomer, unassigned; (+)) gave a melting point of 153 to 155 °C.

As to `CC(C)CCCC(C)Cc1cncn1Cc1ccccc1` (configuration not stated), the melting point lay in the range of 61 to 62 °C.

With `Nc1nc(COc2cccc(Cl)c2Cl)nc2nccnc12`, the melting point fell in the range of 216 to 218 °C.

Compound `O=C([C@@H]1CCCN1S(=O)(=O)c1ccc2ccccc2c1)N1C[C@H](c2ccc(Cl)cc2)Sc2ccc3ccccc3c21` gave a melting point of 204 to 205 °C.

`COC(c1ccc(NC(=O)c2c(C)nn(C)c2C)c(C(C)CC(C)C)c1)(C(F)(F)F)C(F)(F)F` (configuration not stated) yielded a melting point of 94 to 96 °C.

`CN1[C@H]2CC[C@@H]1[C@@H](CO)[C@@H](c1ccc(F)cc1)C2` showed a melting point of 79 to 80 °C.

In the case of `NS(=O)(=O)Cc1ccccc1-c1nnc(S)o1`, the melting point lay in the range of 224 to 227 °C.

`Cc1cc(F)ccc1-c1nc(NC(C)(C)CO)nc2c1ccc(=O)n2-c1ccccc1F` displayed a melting point of 106 to 112 °C.

`CN(C)C(=O)Cc1csc(NC(=O)C(Cc2ccccc2)NC(=O)OC(C)(C)C)n1` (configuration not stated) displayed a melting point of 139 to 140 °C.

`CSCCNC(=O)c1cccc(-c2cccc3cc(Cc4cccc(C(F)(F)F)c4)oc23)c1` had a melting point of 135 to 138 °C.

Compound `CS(=O)(=O)OCC1(c2ccccc2)CCCC1` displayed a melting point of 55 to 60 °C.

The compound `CS(=O)(=O)Nc1cc([C@@H](O)CNC2CCN(c3ccc(S(=O)(=O)N4CCC[C@@H]4C(=O)OCc4ccccc4)cc3)CC2)ccc1O` registered a melting point of 62 to 69 °C.

`Nc1ccsc1C(=O)NCC1CCN(CC2COc3ccccc3O2)CC1` (configuration not stated) displayed a melting point of 144 to 146 °C.

`COC(=O)c1cc(N2C(=O)C3=C(CCCC3)C2=O)ccc1Cl` came in with a melting point of 113 to 115 °C.

As for `COC(=O)c1ccc(Cl)c(C2(O)C(=O)N(Cc3ccc(Cl)cc3OC)c3ccc(Cl)cc32)c1` (configuration not stated), the melting point was 205 °C.

As for `COc1nnc2n1C=Cc1cc(Cl)ccc1C2`, the melting point was 177 to 178 °C.

On to `C[C@@H](NC(=O)c1csc(-c2ccccc2)n1)[C@](O)(Cn1cncn1)c1ccc(F)cc1F`, for which the melting point lay within 174 to 175 °C.

`NCC(C(=O)O)c1c[nH]c2ccc(F)cc12` (configuration not stated) returned a melting point of 244 to 245 °C.

`COC(=O)C1(S(=O)(=O)N2CCC(=O)CC2)CCOCC1` came in with a melting point of 158 to 160 °C.

In turn, `CCCCCCS(=O)C1CC(=O)N1CC(=O)CCc1ccccc1` (configuration not stated) displayed a melting point of 154 to 155 °C.

Turning to `OCCCc1ccc(OCc2coc(/C=C/c3ccccc3)n2)cc1`, the melting point fell in the range of 95 to 96 °C.

Consider `CCOC(=O)c1ccc(NCc2ccc(OCc3ccccc3)cc2)cc1`, for which the melting point fell in the range of 144 to 146 °C.

The compound `O=S(=O)(c1ccc(F)cc1)C(c1cc(F)ccc1F)c1cc(NCCO)ncc1Cl` (configuration not stated) registered a melting point of 157 to 158 °C.

For `Oc1ccc(C(NC(c2ccccc2)c2ccccc2)P(O)O)c(O)c1` (configuration not stated), the melting point stood at 250 °C.

The compound `CNc1nc(-c2cccc(NC(=O)c3cccnc3)c2)c2cc(OC)c(OC)cc2n1` registered a melting point of 251 to 253 °C.

`CC(C)=CCCOc1c(-c2ccc(S(C)(=O)=O)cc2)cnn(-c2ccc(F)cc2)c1=O` gave a melting point of 111 to 114 °C.

`CCCSc1ncnc2c1ncn2C1CC(F)C(CO)O1` (configuration not stated) yielded a melting point of 85 to 86 °C.

`CC(C)(C(=O)O)c1ccc(CCNS(=O)(=O)c2ccccc2)cc1` displayed a melting point of 86 to 88 °C.

Turning to `CCOC(=O)Nc1c(C(=O)c2ccccc2)[nH]c2cc(Cl)ccc12`, the melting point was in the range of 159 to 161 °C.

As for `CCCn1nc2c(N)nc3ccccc3c2c1CCN(C(N)=O)c1ccc(F)cc1`, the melting point lay in the range of 201 to 202 °C.

The compound `CNC(=O)C(=O)c1ccccc1COc1cc(C)ccc1C` yielded a melting point of 129 to 130 °C.

Compound `CCN1c2ncccc2C(=O)Nc2c(C)cc(NCCn3cc[nH]c3=O)nc21` yielded a melting point above 300 °C.

In the case of `CCCCc1c2c(nn1C)c(N)nc1ccccc12`, the melting point fell in the range of 202 to 203 °C.

Consider `CCCCc1nc(SCCF)c(C(=O)OCC)n1Cc1ccc(-c2ccccc2C(=O)O)cc1`, for which the melting point worked out at 79 °C.

For the compound `COCOc1ccccc1C=CC(=O)O`, the melting point is 133 to 134 °C.

For `CCCCCCCCCCCCCCCCCCOc1cc(OCCCCC(=O)OC)cc(N(CC(=O)OCc2ccccc2)CC(=O)OCc2ccccc2)c1`, the melting point is 48 to 50 °C.

Compound `Cc1cc(N2CCN(c3ccccc3)CC2)c2c(N)c(C(N)=O)sc2n1` displayed a melting point of 247 to 250 °C.

The compound `c1ccc2c(c1)CSO2` gave a melting point of 87 °C.

Regarding `Cc1cscc1NC(=S)Nc1cccc(C)c1N`, the melting point is 184 to 186 °C.

Consider `CCC1(CC)NC(=O)N(c2ccc(Cl)c(C(F)(F)F)c2)C1=O`, for which the melting point is 86 to 87 °C.

The compound `O=C(CC1CCCC1)Nc1ccc2cccc(OS(=O)(=O)C(F)(F)F)c2c1` had a melting point of 111 to 116 °C.

The compound `CCN(CC)C(=O)CCc1nc(-c2ccccc2)nc2ccc(OC)cc12` came in with a melting point of 144 °C.

In the case of `CCCNC(=O)c1nc(-c2ccccc2)c(-c2ccc(=O)n(CCC)n2)s1`, the melting point was 121 to 122 °C.

In the case of `COCOc1cc(Cl)ccc1-c1cc(-c2cccc(C(=O)NCC3CCCCN3C(=O)OC(C)(C)C)c2)c(C#N)c(NC(=O)c2ccco2)n1` (configuration not stated), the melting point fell in the range of 133 to 136 °C.

The compound `CCNC(=O)n1nc(Oc2c(Cl)cc(C(F)(F)F)cc2[N+](=O)[O-])cc1C` returned a melting point of 98 to 99 °C.

The compound `Cc1ccc(C(=O)CCCC(C)C(=O)O)cc1` (configuration not stated) returned a melting point of 50 to 50.5 °C.

Take `CCNC(=O)c1ccccc1Nc1nc(Nc2ccc3c(c2)C(C)(C)CNC(=O)C3)ncc1Cl`: the melting point fell in the range of 261 to 262 °C.

The compound `COC(=O)CCc1cc2cc(Cl)ccc2n1S(=O)(=O)c1ccc2c(c1)OCO2` gave a melting point of 122 to 129 °C.

The compound `OC1CSC(Oc2cncc(C(F)(F)F)c2)C(O)C1O` (configuration not stated) had a melting point of 160 to 161 °C.

As for `CCOc1ccc(Nc2nc(NCc3ccco3)nc(Nc3ccc(O)cc3)n2)cc1`, the melting point lay in the range of 43 to 45 °C.

Consider `CCc1c(-c2ccc(OCc3ccccc3)cc2)c2cc(COCCCN(C)C)c3cccc1n32`, for which the melting point lay in the range of 63 to 65 °C.

Turning to `CN(c1cccc2cc(-c3ncc(CC(=O)N4CCOCC4)s3)[nH]c12)S(=O)(=O)c1cccs1`, the melting point was in the range of 199 to 200 °C.

In turn, `O=C(C=Cc1cccnc1)N1CCc2c([nH]c3ccccc23)C1c1ccc2c(c1)OCO2` (configuration not stated) displayed a melting point of 240 °C.

Regarding `Cc1c(NC(=O)OCc2ccccc2)cccc1C(C[N+](=O)[O-])c1c[nH]c2cc(N3CCOCC3)ccc12` (configuration not stated), the melting point is 137 °C.

On to `CN(C)CN(C(=O)c1ccc(Cl)cc1Cl)c1ccc(C(=O)N2Cc3cccn3Cc3ccccc32)cc1`, for which the melting point is 126 to 129 °C.

Turning to `CSCC(=O)N=C(SC)N(C)N=Cc1ccccc1`, the melting point lay in the range of 68 to 70 °C.

`Cn1nc(-c2ccccc2)c(S(=O)(=O)c2ccccc2)c1-c1ccccc1` showed a melting point of 135 to 141 °C.

As to `CC(C)CC(NC(=O)c1ccccc1)C(=O)NC(CCCN(C(=N)NC(=O)OCc1ccccc1)C(=O)OCc1ccccc1)C(=O)Oc1cccc2ccccc12` (configuration not stated), the melting point lay in the range of 178 to 187 °C.

Regarding `CCC(CC)Nc1cc(C)nc2c1ncn2-c1c(C)cc(C)cc1C`, the melting point is 78 to 80 °C.

In turn, `NC(=O)C1(CCC(=O)O)c2ccccc2-c2ccccc21` gave a melting point of 191 to 192 °C.

The compound `N#CCc1cc(-c2ccc(Cl)cc2)n(-c2ccc(S(N)(=O)=O)cc2)n1` returned a melting point of 212 to 214 °C.

`Fc1cc2nn(CCC#Cc3ccccn3)nc2cc1F`: the melting point is 131 to 132 °C.

With `O=C(O)C1CC(=C2CCCN(c3ccccc3)C2=O)c2ccc(Cl)cc2N1` (configuration not stated), the melting point was 130 to 133 °C.

For the compound `COC(=O)c1c(C(C)C)c(S(=O)(=O)c2ccc(O)cc2)c2ccccn12`, the melting point amounted to 199 °C.

On to `CC(=O)CCN1C(=O)c2ccccc2S1(=O)=O`, for which the melting point was in the range of 118 to 119 °C.

Take `CC1(C)CC(=C(c2ccc(O)cc2)c2ccc(OCCOCCO)cc2)CC(C)(C)C1`: the melting point was in the range of 122 to 124 °C.

As to `CC(=O)OCC1OC(n2cc(Cc3ccc(Br)s3)c3c(Cl)cccc32)C(OC(C)=O)C(OC(C)=O)C1OC(C)=O` (configuration not stated), the melting point lay within 185 to 187 °C.

As for `COC(=O)c1c[nH]c(Sc2ccc(Cl)cc2)c1`, the melting point was in the range of 122 to 124 °C.

On to `CC(=CC(=O)O)CCCCCCCCCCCCC(=O)O`, for which the melting point amounted to 77 °C.

`CC(C)(C)OC(=O)NCCNC(=O)c1ncccc1Oc1ccccc1Cl`: the melting point fell in the range of 86 to 87 °C.

In turn, `CNS(=O)(=O)CC(=O)C=C(C)N` registered a melting point of 158 to 162 °C.
